From ChEMBL document CHEMBL1132732, “HINT predictive analysis of binding between retinol binding protein and hydrophobic ligands” (Bioorg Med Chem Lett, 2000)

Legend:
[1] = Partition coefficient (logP); format: physicochemical; details: octanol/water
[2] = Dissociation constant with retinol binding protein was determined

| logP [1] | Kd [2] [µM] | SMILES |
| --- | --- | --- |
| 6.31 | 0.09 | CCNC(=O)/C=C(C)/C=C/C=C(C)/C=C/C1=C(C)CCCC1(C)C |
| 8.15 | – | C/C=C(C)/C=C/C=C(C)/C=C/C1=C(C)CCCC1(C)C |
| – | 0.17 | CC1=C(/C=C/C(C)=C/C=C/C(C)=C/C(=O)Nc2ccc(O)cc2)C(C)(C)CCC1 [FENRETINIDE] |
| 6.16 | 0.07 | CC1=C(/C=C/C(C)=C/C=C/C(C)=C/CO)C(C)(C)CCC1 [RETINOL] |
